Measurements published in the NIST ThermoML archive (doi:10.1016/j.tca.2009.07.002).

Assay: xn = mol fraction of the nth substance listed
Details: 101 kPa, Liquid, Vibrating tube method

CCCCO [butan-1-ol] + CCCCCCC
mass density [kg/m3]
Details	288.15 K	293.15 K	298.15 K	303.15 K	308.15 K	313.15 K	318.15 K	323.15 K
x1 = 0.0691	692.997	688.732	684.439	680.112	675.754	671.356	666.921	662.457
x1 = 0.0999	695.43	691.164	686.867	682.541	678.179	673.778	669.334	664.851
x1 = 0.1495	699.575	695.309	691.013	686.688	682.323	677.919	673.469	668.978
x1 = 0.1701	701.352	697.089	692.795	688.469	684.105	679.699	675.246	670.749
x1 = 0.2	703.971	699.708	695.42	691.091	686.729	682.324	677.872	673.376
x1 = 0.2497	708.55	704.296	700.016	695.692	691.331	686.93	682.482	677.987
x1 = 0.2507	708.652	704.392	700.109	695.793	691.434	687.035	682.589	678.099
x1 = 0.2999	713.405	709.158	704.88	700.571	696.222	691.828	687.391	682.909
x1 = 0.3501	718.522	714.283	710.016	705.715	701.373	696.989	692.557	688.076
x1 = 0.3998	723.818	719.595	715.341	711.055	706.726	702.355	697.935	693.471
x1 = 0.4497	729.369	725.163	720.925	716.653	712.34	707.984	703.577	699.118
x1 = 0.4999	735.288	731.11	726.892	722.64	718.343	714.006	709.618	705.176
x1 = 0.5516	741.637	737.484	733.291	729.062	724.793	720.478	716.114	711.695
x1 = 0.6497	754.667	750.57	746.442	742.276	738.07	733.819	729.516	725.167
x1 = 0.6999	761.833	757.773	753.681	749.559	745.39	741.178	736.918	732.609
x1 = 0.7502	769.372	765.348	761.298	757.214	753.09	748.919	744.697	740.419
x1 = 0.7999	777.249	773.267	769.263	765.22	761.14	757.016	752.839	748.617
x1 = 0.8498	785.51	781.573	777.613	773.62	769.591	765.519	761.397	757.222
x1 = 0.9006	794.437	790.548	786.635	782.692	778.716	774.698	770.631	766.522
x1 = 1	813.373	809.573	805.762	801.923	798.053	794.147	790.231	786.238
